From ChEMBL document CHEMBL4406838, “Neurobehavioral investigation and acetylcholinesterase inhibitory activity study for some new coumarin derivatives” (Eur J Med Chem, 2019)
The source made the active and inactive calls. The calls are words filed in the database; no cut-off is given here.

Assays:
Acetylcholinesterase = Acetylcholinesterase (Homo sapiens, UniProt P22303); experiment: Inhibition of AChE (unknown origin) using acetylthiocholine iodide as substrate by Ellman's method
Mus musculus [1] = experiment: Cognitive enhancing effect in Swiss albino mouse model of STZ-induced cognition deficit assessed as increase in time spent in target quadrant at 3.7 mg/kg, po administrated for 15 days and measured at 5th day of training session for 60 secs by Morris water maze test; assay type: functional, organism-based
Mus musculus [2] = experiment: Cognitive enhancing effect in Swiss albino mouse model of STZ-induced cognition deficit assessed as reduction in escape latency time to find removed platform position at 3.7 mg/kg, po administrated for 15 days and measured for 4 days by Morris water maze test; assay type: functional, organism-based
Mus musculus [3] = experiment: Memory enhancement effect in Swiss albino mouse model of STZ-induced cognition deficit assessed as increase in exploratory preference at 3.7 mg/kg, po administrated for 15 days and measured for 5 mins by novel object recognition test; assay type: functional, organism-based
Mus musculus [4] = experiment: Cognitive enhancing effect in Swiss albino mouse model of STZ-induced cognition deficit assessed as increase in spontaneous alteration at 3.7 mg/kg, po administrated for 15 days and measured for 8 mins by Y-maze test; assay type: functional, organism-based
Mus musculus [5] = experiment: Neuroprotective activity in Swiss albino mouse model of STZ-induced cognition deficit assessed as reduction in Abeta42 deposition level in brain at 3.7 mg/kg, po administrated for 15 days by ELISA; assay type: functional, organism-based
Mus musculus [6] = experiment: Cognitive enhancing effect in Swiss albino mouse model of STZ-induced cognition deficit assessed as increase in time spent in target quadrant at 2.5 mg/kg, po administrated for 15 days and measured at 5th day of training session for 60 secs by Morris water maze test; assay type: functional, organism-based
Mus musculus [7] = experiment: Cognitive enhancing effect in Swiss albino mouse model of STZ-induced cognition deficit assessed as reduction in escape latency time to find removed platform position at 2.5 mg/kg, po administrated for 15 days and measured for 4 days by Morris water maze test; assay type: functional, organism-based
Mus musculus [8] = experiment: Memory enhancement effect in Swiss albino mouse model of STZ-induced cognition deficit assessed as increase in exploratory preference at 2.5 mg/kg, po administrated for 15 days and measured for 5 mins by novel object recognition test; assay type: functional, organism-based
Mus musculus [9] = experiment: Cognitive enhancing effect in Swiss albino mouse model of STZ-induced cognition deficit assessed as increase in spontaneous alteration at 2.5 mg/kg, po administrated for 15 days and measured for 8 mins by Y-maze test; assay type: functional, organism-based
Mus musculus [10] = experiment: Neuroprotective activity in Swiss albino mouse model of STZ-induced cognition deficit assessed as reduction in Abeta42 deposition level in brain at 2.5 mg/kg, po administrated for 15 days by ELISA; assay type: functional, organism-based
Mus musculus [11] = experiment: Cognitive enhancing effect in Swiss albino mouse model of STZ-induced cognition deficit assessed as increase in time spent in target quadrant at 3.2 mg/kg, po administrated for 15 days and measured at 5th day of training session for 60 secs by Morris water maze test; assay type: functional, organism-based
Mus musculus [12] = experiment: Cognitive enhancing effect in Swiss albino mouse model of STZ-induced cognition deficit assessed as reduction in escape latency time to find removed platform position at 3.2 mg/kg, po administrated for 15 days and measured for 4 days by Morris water maze test; assay type: functional, organism-based
Mus musculus [13] = experiment: Memory enhancement effect in Swiss albino mouse model of STZ-induced cognition deficit assessed as increase in exploratory preference at 3.2 mg/kg, po administrated for 15 days and measured for 5 mins by novel object recognition test; assay type: functional, organism-based
Mus musculus [14] = experiment: Cognitive enhancing effect in Swiss albino mouse model of STZ-induced cognition deficit assessed as increase in spontaneous alteration at 3.2 mg/kg, po administrated for 15 days and measured for 8 mins by Y-maze test; assay type: functional, organism-based
Mus musculus [15] = experiment: Neuroprotective activity in Swiss albino mouse model of STZ-induced cognition deficit assessed as reduction in Abeta42 deposition level in brain at 3.2 mg/kg, po administrated for 15 days by ELISA; assay type: functional, organism-based

Acetylcholinesterase, sequence (P22303 whole entry): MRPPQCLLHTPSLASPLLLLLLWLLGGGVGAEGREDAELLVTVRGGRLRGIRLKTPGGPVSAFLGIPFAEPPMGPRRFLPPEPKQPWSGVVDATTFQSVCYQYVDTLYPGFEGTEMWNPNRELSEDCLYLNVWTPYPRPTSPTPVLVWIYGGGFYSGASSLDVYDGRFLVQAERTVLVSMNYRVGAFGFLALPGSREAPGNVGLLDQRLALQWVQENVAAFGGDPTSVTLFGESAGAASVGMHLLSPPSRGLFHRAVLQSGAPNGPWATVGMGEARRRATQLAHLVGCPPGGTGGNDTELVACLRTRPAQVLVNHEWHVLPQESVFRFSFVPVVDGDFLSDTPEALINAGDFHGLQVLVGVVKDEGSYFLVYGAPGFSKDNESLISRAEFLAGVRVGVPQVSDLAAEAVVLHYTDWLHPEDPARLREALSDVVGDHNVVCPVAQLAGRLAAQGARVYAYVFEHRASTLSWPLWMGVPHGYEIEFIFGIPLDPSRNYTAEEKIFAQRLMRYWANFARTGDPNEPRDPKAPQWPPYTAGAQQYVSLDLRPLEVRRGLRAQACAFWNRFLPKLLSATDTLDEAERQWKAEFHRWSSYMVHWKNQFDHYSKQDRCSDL

Structure (SMILES)	IC50 (Acetylcholinesterase) [nM]	other results
COc1ccc(NCC(=O)Nc2ccc3oc(=O)ccc3c2)cc1	55.2	
O=C(CNc1ccc2oc(=O)ccc2c1)N1CCOCC1	37	Activity (Mus musculus [1]): Active; Activity (Mus musculus [2]): Active; Activity (Mus musculus [3]): Active; Activity (Mus musculus [4]): Active; Activity (Mus musculus [5]): Active
CSc1ccc(C2SCC(=O)N2c2ccc3oc(=O)ccc3c2)cc1 (stereo not drawn)	311	
O=c1ccc2cc(/N=C/c3ccc(Br)cc3)ccc2o1	56.9	
COc1ccc(/C=N/c2ccc3oc(=O)ccc3c2)cc1	135	
CN(C)c1ccc(/C=N/c2ccc3oc(=O)ccc3c2)cc1	41	Activity (Mus musculus [6]): Active; Activity (Mus musculus [7]): Active; Activity (Mus musculus [8]): Active; Activity (Mus musculus [9]): Active; Activity (Mus musculus [10]): Active
CSc1ccc(/C=C2/S/C(=N/c3ccc4oc(=O)ccc4c3)NC2=O)cc1	151	
O=C1N/C(=N\c2ccc3oc(=O)ccc3c2)S/C1=C/c1ccc(F)cc1	216	
O=c1ccc2cc(/N=C/c3ccc(Cl)cc3)ccc2o1	78.9	
CN(C)c1ccc(/C=C2/S/C(=N/c3ccc4oc(=O)ccc4c3)NC2=O)cc1	84	
O=C(CNc1ccc(F)cc1)Nc1ccc2oc(=O)ccc2c1	62	
O=C1CSC(c2ccc(F)cc2)N1c1ccc2oc(=O)ccc2c1 (stereo not drawn)	102	
CSc1ccc(/C=N/c2ccc3oc(=O)ccc3c2)cc1	172	
O=C1N/C(=N\c2ccc3oc(=O)ccc3c2)S/C1=C/c1ccc(Cl)cc1	173	
O=c1ccc2cc(/N=C/c3ccc(F)cc3)ccc2o1	226	
O=C(CNc1ccc2oc(=O)ccc2c1)N1CCN(c2ccccc2)CC1	80	
O=c1ccc2cc(/N=C/c3ccccc3)ccc2o1	114	
O=C1N/C(=N\c2ccc3oc(=O)ccc3c2)S/C1=C/c1ccc(Br)cc1	276	
O=C1N/C(=N\c2ccc3oc(=O)ccc3c2)S/C1=C/c1ccccc1	94.1	
O=C(CNc1ccc2oc(=O)ccc2c1)c1ccccc1	148	
COc1ccc(/C=C2/S/C(=N/c3ccc4oc(=O)ccc4c3)NC2=O)cc1	49.8	
COc1ccc(C(=O)CNc2ccc3oc(=O)ccc3c2)cc1	55	Activity (Mus musculus [11]): Active; Activity (Mus musculus [12]): Active; Activity (Mus musculus [13]): Active; Activity (Mus musculus [14]): Active; Activity (Mus musculus [15]): Active
COc1ccc(C2SCC(=O)N2c2ccc3oc(=O)ccc3c2)cc1 (stereo not drawn)	71.1	
